Earlier results, collected in patent US20220151997A1, “USE OF EPALRESTAT IN PREPARATION OF PANCREATIC CANCER DRUGS AND METHOD FOR VERIFYING INHIBITION EFFECT OF EPALRESTAT ON SECRETION OF EXOSOMES FROM PANCREATIC CANCER CELLS” (Affiliated Hospital of Nantong University, priority 2019, published 2022).

Test system: prostate cancer cells
Details: by inhibiting the Ras signaling pathway and hnRNP H1 expression

In the case of `CCCC[C@@H](C)/C=C(C)/C=C(\C)C(=O)NC1=C[C@@](O)(/C=C/C=C/C=C/C(=O)NC2=C(O)CCC2=O)[C@@H]2O[C@@H]2C1=O` [Manumycin A], the “production and secretion of the exosomes” value is listed as “inhibits”.
